In PubChem BioAssay AID1259407 (Chemical Carcinogenesis Research Information System (CCRIS), 2018):
The source made the active and inactive calls. The rule behind the calls is not given here.

System: CCRIS mutagenicity, Ames/micronucleus/aberration tests
Test: CCRIS mutagenicity studies
[1] = Test System: AMES SALMONELLA TYPHIMURIUM, Strain/Indicator: TA98, Metabolic Activation: NONE, Method: PREINCUBATION
[2] = Test System: AMES SALMONELLA TYPHIMURIUM, Strain/Indicator: TA98, Metabolic Activation: NONE, Method: STANDARD PLATE
[3] = Test System: AMES SALMONELLA TYPHIMURIUM, Strain/Indicator: TA98, Metabolic Activation: RAT, LIVER, S-9, AROCLOR 1254, Method: STANDARD PLATE
[4] = Test System: AMES SALMONELLA TYPHIMURIUM, Strain/Indicator: TA100, Metabolic Activation: NONE, Method: STANDARD PLATE
[5] = Test System: AMES SALMONELLA TYPHIMURIUM, Strain/Indicator: TA100, Metabolic Activation: RAT, LIVER, S-9, AROCLOR 1254, Method: STANDARD PLATE

With `CN=C=O` the mutagenic call (Test System: AMES SALMONELLA TYPHIMURIUM, Strain/Indicator: TA97A, Metabolic Activation: NONE, Method: PREINCUBATION) was “inactive; negative”, the mutagenic call (Test System: AMES SALMONELLA TYPHIMURIUM, Strain/Indicator: TA97A, Metabolic Activation: RAT, LIVER, S-9, AROCLOR 1254, Method: PREINCUBATION) was “inactive; negative” and the mutagenic call (Test System: AMES SALMONELLA TYPHIMURIUM, Strain/Indicator: TA97A, Metabolic Activation: RAT, LIVER, S-9, BETA-NAPHTHOFLAVONE, Method: PREINCUBATION) was “inactive; negative”. For the same compound, the mutagenic call (Test System: AMES SALMONELLA TYPHIMURIUM, Strain/Indicator: TA97A, Metabolic Activation: RAT, LIVER, S-9, SODIUM PHENOBARBITONE, Method: PREINCUBATION) was “inactive; negative”, the mutagenic call (Test System: AMES SALMONELLA TYPHIMURIUM, Strain/Indicator: TA98, Metabolic Activation: HAMSTER, LIVER, S-9, AROCLOR 1254, Method: STANDARD PLATE) was “inactive; negative” and the mutagenic call [1] was “inactive; negative”. For the same compound, the mutagenic call [2] was “inactive; negative”, the mutagenic call (Test System: AMES SALMONELLA TYPHIMURIUM, Strain/Indicator: TA98, Metabolic Activation: RAT, LIVER, S-9, AROCLOR 1254, Method: PREINCUBATION) was “inactive; negative” and the mutagenic call [3] was “inactive; negative”. For the same compound, the mutagenic call (Test System: AMES SALMONELLA TYPHIMURIUM, Strain/Indicator: TA98, Metabolic Activation: RAT, LIVER, S-9, BETA-NAPHTHOFLAVONE, Method: PREINCUBATION) was “inactive; negative”, the mutagenic call (Test System: AMES SALMONELLA TYPHIMURIUM, Strain/Indicator: TA98, Metabolic Activation: RAT, LIVER, S-9, SODIUM PHENOBARBITONE, Method: PREINCUBATION) was “inactive; negative” and the mutagenic call (Test System: AMES SALMONELLA TYPHIMURIUM, Strain/Indicator: TA100, Metabolic Activation: HAMSTER, LIVER, S-9, AROCLOR 1254, Method: STANDARD PLATE) was “inactive; negative”. For the same compound, the mutagenic call [4] was “inactive; negative”, the mutagenic call (Test System: AMES SALMONELLA TYPHIMURIUM, Strain/Indicator: TA100, Metabolic Activation: RAT, LIVER, S-9, AROCLOR 1254, Method: PREINCUBATION) was “inactive; negative” and the mutagenic call [5] was “inactive; negative”. The mutagenic call (Test System: AMES SALMONELLA TYPHIMURIUM, Strain/Indicator: TA100, Metabolic Activation: RAT, LIVER, S-9, BETA-NAPHTHOFLAVONE, Method: PREINCUBATION) was “inactive; negative”, the mutagenic call (Test System: AMES SALMONELLA TYPHIMURIUM, Strain/Indicator: TA100, Metabolic Activation: RAT, LIVER, S-9, SODIUM PHENOBARBITONE, Method: PREINCUBATION) was “inactive; negative” and the mutagenic call (Test System: AMES SALMONELLA TYPHIMURIUM, Strain/Indicator: TA102, Metabolic Activation: NONE, Method: PREINCUBATION) was “inactive; negative”. The mutagenic call (Test System: AMES SALMONELLA TYPHIMURIUM, Strain/Indicator: TA102, Metabolic Activation: RAT, LIVER, S-9, AROCLOR 1254, Method: PREINCUBATION) was “inactive; negative”, the mutagenic call (Test System: AMES SALMONELLA TYPHIMURIUM, Strain/Indicator: TA102, Metabolic Activation: RAT, LIVER, S-9, BETA-NAPHTHOFLAVONE, Method: PREINCUBATION) was “inactive; negative” and the mutagenic call (Test System: AMES SALMONELLA TYPHIMURIUM, Strain/Indicator: TA102, Metabolic Activation: RAT, LIVER, S-9, SODIUM PHENOBARBITONE, Method: PREINCUBATION) was “inactive; negative”. For the same compound, the mutagenic call (Test System: AMES SALMONELLA TYPHIMURIUM, Strain/Indicator: TA104, Metabolic Activation: RAT, LIVER, S-9, AROCLOR 1254, Method: PREINCUBATION) was “inactive; negative”, the mutagenic call (Test System: AMES SALMONELLA TYPHIMURIUM, Strain/Indicator: TA104, Metabolic Activation: RAT, LIVER, S-9, BETA-NAPHTHOFLAVONE, Method: PREINCUBATION) was “inactive; negative” and the mutagenic call (Test System: AMES SALMONELLA TYPHIMURIUM, Strain/Indicator: TA104, Metabolic Activation: RAT, LIVER, S-9, SODIUM PHENOBARBITONE, Method: PREINCUBATION) was “inactive; negative”. For the same compound, the mutagenic call (Test System: AMES SALMONELLA TYPHIMURIUM, Strain/Indicator: TA1535, Metabolic Activation: HAMSTER, LIVER, S-9, AROCLOR 1254, Method: STANDARD PLATE) was “inactive; negative”, the mutagenic call (Test System: AMES SALMONELLA TYPHIMURIUM, Strain/Indicator: TA1535, Metabolic Activation: NONE, Method: STANDARD PLATE) was “inactive; negative” and the mutagenic call (Test System: AMES SALMONELLA TYPHIMURIUM, Strain/Indicator: TA1535, Metabolic Activation: RAT, LIVER, S-9, AROCLOR 1254, Method: STANDARD PLATE) was “inactive; negative”. The mutagenic call (Test System: AMES SALMONELLA TYPHIMURIUM, Strain/Indicator: TA1537, Metabolic Activation: HAMSTER, LIVER, S-9, AROCLOR 1254, Method: STANDARD PLATE) was “inactive; negative”, the mutagenic call (Test System: AMES SALMONELLA TYPHIMURIUM, Strain/Indicator: TA1537, Metabolic Activation: NONE, Method: STANDARD PLATE) was “inactive; negative” and the mutagenic call (Test System: AMES SALMONELLA TYPHIMURIUM, Strain/Indicator: TA1537, Metabolic Activation: RAT, LIVER, S-9, AROCLOR 1254, Method: STANDARD PLATE) was “inactive; negative”. For the same compound, the mutagenic call (Test System: AMES SALMONELLA TYPHIMURIUM, Strain/Indicator: TA1538, Metabolic Activation: HAMSTER, LIVER, S-9, AROCLOR 1254, Method: STANDARD PLATE) was “inactive; negative”, the mutagenic call (Test System: AMES SALMONELLA TYPHIMURIUM, Strain/Indicator: TA1538, Metabolic Activation: NONE, Method: STANDARD PLATE) was “inactive; negative” and the mutagenic call (Test System: AMES SALMONELLA TYPHIMURIUM, Strain/Indicator: TA1538, Metabolic Activation: RAT, LIVER, S-9, AROCLOR 1254, Method: STANDARD PLATE) was “inactive; negative”. The mutagenic call (Test System: MOUSE LYMPHOMA, Strain/Indicator: L5178Y (TK+/TK-), Metabolic Activation: RAT, LIVER, S-9, AROCLOR 1254, Method: SUSPENSION/PLATE) was “inactive; negative. reevaluation of results: negative”.

With `N#CC(C#N)=Cc1ccc([N+](=O)[O-])o1` the mutagenic call [1] was “active; positive”.

In the case of `CC(C)=CC1C(C(=O)OC(C#N)c2cccc(Oc3ccccc3)c2)C1(C)C` (stereo not drawn), the mutagenic call (Test System: Ames Salmonella typhimurium, Strain/Indicator: TA98, Metabolic Activation: None, Method: Preincubation) is reported as “inactive; negative”, the mutagenic call (Test System: Ames Salmonella typhimurium, Strain/Indicator: TA98, Metabolic Activation: Rat, liver, S-9, Method: Preincubation) is reported as “inactive; negative” and the mutagenic call (Test System: Ames Salmonella typhimurium, Strain/Indicator: TA100, Metabolic Activation: None, Method: Preincubation) is reported as “inactive; negative”. The mutagenic call (Test System: Ames Salmonella typhimurium, Strain/Indicator: TA100, Metabolic Activation: Rat, liver, S-9, Method: Preincubation) was “inactive; negative”, the mutagenic call (Test System: Ames Salmonella typhimurium, Strain/Indicator: TA1535, Metabolic Activation: None, Method: Preincubation) was “inactive; negative” and the mutagenic call (Test System: Ames Salmonella typhimurium, Strain/Indicator: TA1535, Metabolic Activation: Rat, liver, S-9, Method: Preincubation) was “inactive; negative”. The mutagenic call (Test System: Ames Salmonella typhimurium, Strain/Indicator: TA1537, Metabolic Activation: None, Method: Preincubation) was “inactive; negative”, the mutagenic call (Test System: Ames Salmonella typhimurium, Strain/Indicator: TA1537, Metabolic Activation: Rat, liver, S-9, Method: Preincubation) was “inactive; negative” and the mutagenic call (Test System: Ames Salmonella typhimurium, Strain/Indicator: TA1538, Metabolic Activation: None, Method: Preincubation) was “inactive; negative”. For the same compound, the mutagenic call (Test System: Ames Salmonella typhimurium, Strain/Indicator: TA1538, Metabolic Activation: Rat, liver, S-9, Method: Preincubation) was “inactive; negative”, the mutagenic call (Test System: E. coli, Strain/Indicator: WP-2 uvrA, Metabolic Activation: None, Method: Preincubation) was “inactive; negative” and the mutagenic call (Test System: E. coli, Strain/Indicator: WP-2 uvrA, Metabolic Activation: Rat, liver, S-9, Method: Preincubation) was “inactive; negative”.

In the case of `Nc1ccc(/C=C/c2ccc(Cl)cc2)cc1`, the mutagenic call (Test System: AMES SALMONELLA TYPHIMURIUM, Strain/Indicator: TA98(1,8-DNP6), Metabolic Activation: NONE, Method: STANDARD PLATE) is reported as “inactive; negative”, the mutagenic call (Test System: AMES SALMONELLA TYPHIMURIUM, Strain/Indicator: TA98(1,8-DNP6), Metabolic Activation: S-9, Method: STANDARD PLATE) is reported as “active; positive” and the mutagenic call [2] is reported as “inactive; negative”. For the same compound, the mutagenic call [3] was “active; positive”, the mutagenic call (Test System: AMES SALMONELLA TYPHIMURIUM, Strain/Indicator: TA98, Metabolic Activation: S-9, Method: STANDARD PLATE) was “active; positive” and the mutagenic call [4] was “inactive; negative”. For the same compound, the mutagenic call [5] was “active; positive” and the mutagenic call (Test System: AMES SALMONELLA TYPHIMURIUM, Strain/Indicator: TA100, Metabolic Activation: S-9, Method: STANDARD PLATE) was “active; positive”.

With `COC(=O)Nc1nc2ccc(S(=O)c3ccccc3)cc2[nH]1` (stereo not drawn) the mutagenic call (End Point: In vivo chromosomal aberrations, Test System: Bone marrow cells, Species: Mouse, Strain/Sex: Swiss /Female, Route: Oral) was “active; positive (structural changes and ploidy)”, the mutagenic call (End Point: In vivo chromosomal aberrations, Test System: Bone marrow cells, Species: Mouse, Strain/Sex: Swiss /Male, Route: Oral) was “active; positive (structural changes and ploidy)” and the mutagenic call (End Point: In vivo chromosomal aberrations, Test System: Spermatocytes, Species: Mouse, Strain/Sex: Swiss /Male, Route: Oral) was “active; positive (ploidy)”.
